# Measured values from patent publication US20240360081A1, “SULFONAMIDE OREXIN RECEPTOR AGONISTS AND USES THEREOF” (Jazz Pharmaceuticals Ireland Limited, priority 2021, published 2024).
# Molecular target: T1, human recombinant OX2 (hOX2) receptor expressed in CHO cells (Homo sapiens, UniProt O43614)
# T1 construct: host or cells: CHO cells (hOX2-CHO)
# T1 sequence (O43614 1-444): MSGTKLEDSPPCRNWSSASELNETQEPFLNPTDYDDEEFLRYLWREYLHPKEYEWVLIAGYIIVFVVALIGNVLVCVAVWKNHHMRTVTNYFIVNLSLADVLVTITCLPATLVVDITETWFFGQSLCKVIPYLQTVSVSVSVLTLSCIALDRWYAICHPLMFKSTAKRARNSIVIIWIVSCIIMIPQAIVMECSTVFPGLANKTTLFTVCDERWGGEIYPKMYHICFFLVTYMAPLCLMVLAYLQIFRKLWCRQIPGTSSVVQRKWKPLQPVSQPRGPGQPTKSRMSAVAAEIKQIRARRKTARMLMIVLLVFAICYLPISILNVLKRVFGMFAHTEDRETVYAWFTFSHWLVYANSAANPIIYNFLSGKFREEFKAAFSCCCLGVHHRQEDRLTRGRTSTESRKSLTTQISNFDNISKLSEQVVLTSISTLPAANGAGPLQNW
# Assay: IP-1 accumulation assay (IP-One HTRF) in hOX2-CHO cells
# Format: cell-based
# Conditions: 60 min at 37° C., 11 points CRC, response as % of maximal OX-A response
# Protocol: The accumulation of Inositol-1 Monophosphate (IP-1) was measured using IP-One HTRF® Terbium cryptate based assay (Cisbio) in human recombinant OX1 (hOX1) and at OX2 (hOX2) receptors expressed in CHO cells (DiscoverX) according to the manufacturer's instructions for cells tested in suspension.
# hOX1-CHO and hOX2-CHO cells were seeded into white 384-well plates at a density of 20,000 cells/well in Hank's Balanced Salt Solution (HBSS) containing 20 mM HEPES pH 7.4, 50 mM, LiCl and 0.1% and Bovine Serum Albumin (BSA).
# Compounds of the present disclosure were tested in a 11 points concentration response curve (CRC) serially diluted in neat DMSO at 200 fold concentrations and added by Echo acoustic liquid handling (Labcyte) to the cells (0.5% DMSO final in the assay). After 60 min of incubation at 37° C. detection reagents, IP1-d2 tracer and anti-IP1-cryptate were diluted in lysis buffer according to the manufacturer's descriptions and added to the cells.
# Following 60 min incubation at room temperature, time-resolved fluorescence (HTRF) was measured at 615 nm and 665 nm by Envision Multilabel reader (Perkin Elmer) and the HTRF ratio (A665/A615x104) was calculated.
# The IP-1 accumulation response was expressed as percentage of the maximal OX-A response.
# Curve fitting and EC50 estimations were carried out using a four-parameter logistic model using XLfit Software. Mean data of EC50 are calculated from at least two independent experiments performed in duplicates.
# In the Tables, below Category A corresponds to compounds displaying an […]<100 nM, Category B between 100 nM and 1,000 nM, Category C between 1,000 nM and 10,000 nM and Category D above 10,000 nM.
row,SMILES,EC50 [nM]
1,"CN(C)S(=O)(=O)NCC(CO[C@H]1CC[C@@H](c2ccccc2)CC1)n1ccccc1=O (relative stereo) [Example 1f, 1-{1-[(Dimethylsulfamoyl)amino]-3-{[(CIS)-4-phenylcyclohexyl]oxy}propan-2-yl}-1,2-dihydropyridin-2-one]",1000 to 10000
2,"CS(=O)(=O)NCC(CO[C@H]1CC[C@@H](c2ccccc2)CC1)n1ccccc1=O (single isomer, unassigned; isomer 1) [Example 1a, (R or S) N-[2-(2-oxo-1,2-dihydropyridin-1-yl)-3-{[(CIS)-4-phenylcyclo-hexyl]oxy}propyl] methane-sulfonamide- Isomer 1]",1000 to 10000
3,"Cc1cccn(C(CNS(C)(=O)=O)CO[C@H]2CC[C@@H](c3ccccc3)CC2)c1=O (single isomer, unassigned; isomer 1) [Example 1d, (R or S) N-[2-(3-methyl-2-oxo-1,2-dihydropyridin-1-yl)-3-{[(CIS)-4-phenylcyclo-hexyl]oxy}propyl] methane-sulfonamide- Isomer 1]",> 10000
4,"CCc1cccn(C(CNS(C)(=O)=O)CO[C@H]2CC[C@@H](c3ccccc3)CC2)c1=O (single isomer, unassigned; isomer 1) [Example 2a, (R or S) N-[2-(3-ethyl-2-oxo-1,2-dihydropyridin-1-yl)-3-{[(CIS)-4-phenylcyclohexyl]oxy}propyl]methanesulfonamide-Isomer 1]",> 10000
5,"Cc1ccn(C(CNS(C)(=O)=O)CO[C@H]2CC[C@@H](c3ccccc3)CC2)n1 (single isomer, unassigned; isomer 1) [Example 2ab, (R or S) N-[2-(3-methyl-1H-pyrazol-1-yl)-3-{[(CIS)-4-phenylcyclohexyl]oxy}propyl]methanesulfonamide-Isomer 1]",> 10000
6,"Cc1ccnn1C(CNS(C)(=O)=O)CO[C@H]1CC[C@@H](c2ccccc2)CC1 (single isomer, unassigned; isomer 1) [Example 2ad, (R or S) N-[2-(5-methyl-1H-pyrazol-1-yl)-3-{[(CIS)-4-phenylcyclohexyl]oxy}propyl]methanesulfonamide-Isomer 1]",> 10000
7,"Cc1cc(C)c(=O)n(C(CNS(C)(=O)=O)CO[C@H]2CC[C@@H](c3cccc(F)c3)CC2)c1 (single isomer, unassigned; isomer 1) [Example 2af, (R or S) N-[2-(3,5-dimethyl-2-oxo-1,2-dihydropyridin-1-yl)-3-{[(CIS)-4-(3-fluorophenyl)cyclohexyl]oxy}propyl]methanesulfonamide-Isomer 1]",< 100
8,"Cc1cc(Cl)cn(C(CNS(C)(=O)=O)CO[C@H]2CC[C@@H](c3cccc(F)c3)CC2)c1=O (single isomer, unassigned; isomer 1) [Example 2ah, (R or S) N-[2-(5-chloro-3-methyl-2-oxo-1,2-dihydropyridin-1-yl)-3-{[(CIS)-4-(3-fluorophenyl)cyclohexyl]oxy}propyl]methanesulfonamide-Isomer 1]",< 100
9,"Cc1cc(C)c(=O)n(C(CNS(=O)(=O)N(C)C)CO[C@H]2CC[C@@H](c3cccc(F)c3)CC2)c1 (single isomer, unassigned; isomer 1) [Example 2ar, (R or S) 1-[1-[(dimethylsulfamoyl)amino]-3-{[(CIS)-4-(3-fluorophenyl)cyclohexyl]oxy}propan-2-yl]-3,5-dimethyl-1,2-dihydropyridin-2-one-Isomer 1]",< 100
10,"Cc1cc(C)c(=O)n(C(CNS(=O)(=O)CF)CO[C@H]2CC[C@@H](c3cccc(F)c3)CC2)c1 (single isomer, unassigned; isomer 1) [Example 2au, (R or S) N-[2-(3,5-dimethyl-2-oxo-1,2-dihydropyridin-1-yl)-3-{[(CIS)-4-(3-fluorophenyl)cyclohexyl]oxy}propyl]-1-fluoromethanesulfonamide-Isomer 1]",< 100
11,"Cc1cc(C)c(=O)n(C(CNS(C)(=O)=O)COC2CCN(c3ncc(F)cn3)CC2)c1 (single isomer, unassigned; isomer 1) [Example 2az, (R or S) N-[2-(3,5-dimethyl-2-oxo-1,2-dihydropyridin-1-yl)-3-{[1-(5-fluoropyrimidin-2-yl)piperidin-4-yl]oxy}propyl]methanesulfonamide-Isomer 1]",1000 to 10000
12,"CS(=O)(=O)NCC(CO[C@H]1CC[C@@H](c2ccccc2)CC1)n1cccc(F)c1=O (single isomer, unassigned; isomer 1) [Example 2g, (R or S) N-[2-(3-fluoro-2-oxo-1,2-dihydropyridin-1-yl)-3-{[(CIS)-4-phenylcyclohexyl]oxy}propyl]methanesulfonamide-Isomer 1]",1000 to 10000
13,"Cc1ccc(=O)n(C(CNS(C)(=O)=O)CO[C@H]2CC[C@@H](c3ccccc3)CC2)c1 (single isomer, unassigned; isomer 1) [Example 2j, (R or S) N-[2-(5-methyl-2-oxo-1,2-dihydropyridin-1-yl)-3-{[(CIS)-4-phenylcyclohexyl]oxy}propyl]methanesulfonamide-Isomer 1]",100 to 1000
14,"Cc1ccn(C(CNS(C)(=O)=O)CO[C@H]2CC[C@@H](c3ccccc3)CC2)c(=O)c1C (single isomer, unassigned; isomer 1) [Example 2n, (R or S) N-[2-(3,4-dimethyl-2-oxo-1,2-dihydropyridin-1-yl)-3-{[(CIS)-4-phenylcyclohexyl]oxy}propyl]methanesulfonamide-Isomer 1]",100 to 1000
15,"Cc1cc(C)c(=O)n(C(CNS(C)(=O)=O)CO[C@H]2CC[C@@H](c3ccccc3)CC2)c1 (single isomer, unassigned; isomer 1) [Example 2t, (R or S) N-[2-(3,5-dimethyl-2-oxo-1,2-dihydropyridin-1-yl)-3-{[(CIS)-4-phenylcyclohexyl]oxy}propyl]methanesulfonamide-Isomer 1]",< 100

# Second part, the compound after the results:
row,EC50 [nM],SMILES
1,< 100,"Cc1cc(C(CNS(=O)(=O)CF)CO[C@H]2CC[C@@H](c3cc(F)cc(F)c3)CC2)c(=O)n(C)c1 (relative stereo) [Example 5t, N-[2-(1,5-dimethyl-2-oxo-1,2-dihydropyridin-3-yl)-3-{[(CIS)-4-(3,5-difluorophenyl)cyclohexyl]oxy}propyl]-1-fluoromethanesulfonamide]"
2,1000 to 10000,"Cc1cccn(C(CO[C@H]2CC[C@@H](c3ccccc3)CC2)C(C)NS(C)(=O)=O)c1=O (single isomer, unassigned; isomer 1) [Example 3a, (2R or 2S) and (3R or 3S) N-[3-(3-methyl-2-oxo-1,2-dihydropyridin-1-yl)-4-{[(CIS)-4-phenylcyclohexyl]oxy}butan-2-yl]methanesulfonamide—Isomer 1]"
3,1000 to 10000,"Cn1cccc(C(CNS(C)(=O)=O)CO[C@H]2CC[C@@H](c3ccccc3)CC2)c1=O (single isomer, unassigned; isomer 1) [Example 4a, (R or S) N-[2-(1-methyl-2-oxo-1,2-dihydropyridin-3-yl)-3-{[(CIS)-4-phenylcyclohexyl]oxy}propyl]methanesulfonamide—Isomer 1]"
4,< 100,"Cc1cc(C(CNS(=O)(=O)N(C)C)CO[C@H]2CC[C@@H](c3cccc(F)c3)CC2)c(=O)n(C(F)F)c1 (single isomer, unassigned; isomer 1) [Example 5ab, (R or S) 1-(difluoromethyl)-3-[1-[(dimethylsulfamoyl)amino]-3-{[(CIS)-4-(3-fluorophenyl)cyclohexyl]oxy}propan-2-yl]-5-methyl-1,2-dihydropyridin-2-one—Isomer 1]"
5,< 100,"Cc1cc(C(CNS(C)(=O)=O)CO[C@H]2CC[C@@H](c3cccc(F)c3)CC2)c(=O)n(C)c1 (single isomer, unassigned; isomer 1) [Example 5c, (R or S) N-[2-(1,5-dimethyl-2-oxo-1,2-dihydropyridin-3-yl)-3-{[(CIS)-4-(3-fluorophenyl)cyclohexyl]oxy}propyl]methanesulfonamide—Isomer 1]"
6,< 100,"Cc1cc(C)[n+]([O-])c(C(CNS(C)(=O)=O)CO[C@H]2CC[C@@H](c3ccccc3)CC2)c1 (single isomer, unassigned; isomer 1) [Example 5k, (R or S) 2-[1-methanesulfonamido-3-{[(CIS)-4-phenylcyclohexyl]oxy}propan-2-yl]-4,6-dimethylpyridin-1-ium-1-olate—Isomer 1]"
